Source: ChEMBL document CHEMBL1128086, “Serine protease selectivity of the thrombin inhibitor D-Phe-Pro-Agmatine and its homologs” (Bioorg Med Chem Lett, 1995)

How the values were obtained:
[1] = target: Plasminogen (Homo sapiens) (UniProt P00747); test: In vitro inhibitory potency against plasmin
[2] = target: Prothrombin (Homo sapiens) (UniProt P00734); test: In vitro inhibitory potency against human alpha-thrombin
[3] = target: Urokinase-type plasminogen activator (Homo sapiens) (UniProt P00749); test: In vitro inhibitory potency against Urokinase-type plasminogen activator in human
[4] = target: Serine protease 1 (Homo sapiens) (UniProt P07477); test: In vitro inhibitory potency against trypsin
Sequence of Serine protease 1 (Homo sapiens) (P07477 whole entry): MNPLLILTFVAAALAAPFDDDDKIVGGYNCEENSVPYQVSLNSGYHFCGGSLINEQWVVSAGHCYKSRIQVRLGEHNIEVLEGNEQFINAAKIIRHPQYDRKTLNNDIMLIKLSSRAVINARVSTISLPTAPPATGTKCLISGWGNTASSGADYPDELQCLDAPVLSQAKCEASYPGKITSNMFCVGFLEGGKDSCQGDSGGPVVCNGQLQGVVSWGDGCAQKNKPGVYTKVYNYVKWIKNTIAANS

[5] = target: Tissue-type plasminogen activator (Homo sapiens) (UniProt P00750); test: In vitro inhibitory potency against n-tissue plasminogen activator in human
Sequence of Tissue-type plasminogen activator (Homo sapiens) (P00750 36-562 limits assumed): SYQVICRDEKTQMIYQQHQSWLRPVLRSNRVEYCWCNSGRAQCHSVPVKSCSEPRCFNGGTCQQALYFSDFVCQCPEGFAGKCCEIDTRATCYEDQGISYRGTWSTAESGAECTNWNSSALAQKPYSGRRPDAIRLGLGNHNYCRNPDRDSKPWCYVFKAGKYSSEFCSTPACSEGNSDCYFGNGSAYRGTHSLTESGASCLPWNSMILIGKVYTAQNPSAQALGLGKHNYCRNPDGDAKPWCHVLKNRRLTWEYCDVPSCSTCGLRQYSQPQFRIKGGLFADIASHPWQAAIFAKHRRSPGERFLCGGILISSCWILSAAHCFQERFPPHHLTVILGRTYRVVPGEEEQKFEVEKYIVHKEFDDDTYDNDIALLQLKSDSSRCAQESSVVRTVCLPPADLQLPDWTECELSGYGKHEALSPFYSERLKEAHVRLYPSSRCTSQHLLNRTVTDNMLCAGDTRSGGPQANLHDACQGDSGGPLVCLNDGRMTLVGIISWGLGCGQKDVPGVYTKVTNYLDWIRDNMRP

[6] = target: Thrombin and urokinase-type plasminogen activator (Homo sapiens) (UniProt P00734+P00749); test: Selectivity ratio of thrombin Kass to Urokinase Kass; type: protein assay
[7] = Selectivity ratio of thrombin Kass to ntPA Kass
[8] = Selectivity ratio of thrombin Kass to plasmin Kass
[9] = target: Thrombin & trypsin (Homo sapiens) (UniProt P00734+P07477+P07478+P35030); test: Selectivity ratio of thrombin Kass to trypsin Kass; type: protein assay
[10] = target: Plasminogen (Homo sapiens) (UniProt P00747); test: In vitro inhibitory potency against plasmin; no enzyme inhibition was observed at an inhibitor concentration of 200 uM
[11] = target: Urokinase-type plasminogen activator (Homo sapiens) (UniProt P00749); test: In vitro inhibitory potency against Urokinase-type plasminogen activator in human; no enzyme inhibition was observed at an inhibitor concentration of 200 uM
[12] = target: Tissue-type plasminogen activator (Homo sapiens) (UniProt P00750); test: In vitro inhibitory potency against n-tissue plasminogen activator in humans; no enzyme inhibition was observed at an inhibitor concentration of 200 uM
[13] = target: Tissue-type plasminogen activator (Homo sapiens) (UniProt P00750); test: In vitro inhibitory potency against n-tissue plasminogen activator in human; no enzyme inhibition was observed at an inhibitor concentration of 200 uM

Sequence of Plasminogen (Homo sapiens) (P00747 97-580 limits assumed): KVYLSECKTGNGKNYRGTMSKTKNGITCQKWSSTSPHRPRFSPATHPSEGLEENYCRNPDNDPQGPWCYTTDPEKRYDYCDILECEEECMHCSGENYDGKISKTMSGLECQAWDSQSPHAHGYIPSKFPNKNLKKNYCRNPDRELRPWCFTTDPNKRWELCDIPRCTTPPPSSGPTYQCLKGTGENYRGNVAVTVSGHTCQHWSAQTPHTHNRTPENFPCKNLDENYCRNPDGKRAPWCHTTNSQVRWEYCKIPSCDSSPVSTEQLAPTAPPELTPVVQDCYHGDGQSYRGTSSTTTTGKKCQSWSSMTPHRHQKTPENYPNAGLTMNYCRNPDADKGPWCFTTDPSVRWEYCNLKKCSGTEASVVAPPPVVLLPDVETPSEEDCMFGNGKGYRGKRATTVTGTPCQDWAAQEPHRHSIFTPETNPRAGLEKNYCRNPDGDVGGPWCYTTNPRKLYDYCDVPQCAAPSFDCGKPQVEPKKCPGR
Sequence of Plasminogen (Homo sapiens) (P00747 581-810 limits assumed): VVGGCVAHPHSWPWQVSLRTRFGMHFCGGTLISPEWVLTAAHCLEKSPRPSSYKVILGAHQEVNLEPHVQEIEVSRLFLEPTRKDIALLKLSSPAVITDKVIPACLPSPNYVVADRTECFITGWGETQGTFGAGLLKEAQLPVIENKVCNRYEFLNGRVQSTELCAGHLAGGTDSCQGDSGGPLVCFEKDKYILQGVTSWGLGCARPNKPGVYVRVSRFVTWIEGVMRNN

| K ass [1] | K ass [2] | K ass [3] | K ass [4] | K ass [5] | Ratio [6] | Ratio [7] | Ratio [8] | Ratio [9] | K ass [10] | K ass [11] | K ass [12] | K ass [13] | Structure (SMILES) |
| --- | --- | --- | --- | --- | --- | --- | --- | --- | --- | --- | --- | --- | --- |
| 1.4e+06 l M-1 | 5.4e+08 l M-1 | 42000 l M-1 | 1.1e+08 l M-1 | 290000 l M-1 | 13000 | 1800 | 390 | 5.1 | – | – | – | – | NC(N)=NCCC[C@@H](C=O)NC(=O)[C@@H]1CCCN1C(=O)[C@H](N)Cc1ccccc1 |
| – | 1.4e+06 l M-1 | – | 14000 l M-1 | 4100 l M-1 | 5600 | 341 | > 5600 | 100 | < 250 l M-1 | < 250 l M-1 | – | – | NC(N)=NCCCNC(=O)[C@@H]1CCCN1C(=O)[C@H](N)Cc1ccccc1 |
| 1200 l M-1 | 5.5e+06 l M-1 | 180 l M-1 | 170000 l M-1 | 6000 l M-1 | 31000 | 920 | 4600 | 33 | – | – | – | – | NC(N)=NCCCCNC(=O)C1CCCN1C(=O)[C@H](N)Cc1ccccc1 (some centres undefined) |
| – | 1.3e+06 l M-1 | – | 2700 l M-1 | – | > 5200 | > 5200 | > 5200 | 480 | < 250 l M-1 | < 250 l M-1 | < 250 l M-1 | – | NC(N)=NCCCCCNC(=O)[C@@H]1CCCN1C(=O)[C@H](N)Cc1ccccc1 |
| 1.8e+06 l M-1 | 4.6e+08 l M-1 | 32000 l M-1 | 8.8e+07 l M-1 | 50000 l M-1 | 14000 | 8500 | 260 | 5.2 | – | – | – | – | CN[C@H](Cc1ccccc1)C(=O)N1CCC[C@H]1C(=O)N[C@H](C=O)CCCNC(=N)N |
| – | 24000 l M-1 | – | 600 l M-1 | – | – | – | – | – | < 250 l M-1 | < 250 l M-1 | – | < 250 l M-1 | NC(N)=NCCCCCCNC(=O)[C@@H]1CCCN1C(=O)[C@H](N)Cc1ccccc1 |
| 1100 l M-1 | 2.4e+06 l M-1 | 180 l M-1 | 240000 l M-1 | 1100 l M-1 | 13000 | 2100 | 2100 | 10 | – | – | – | – | CN[C@H](Cc1ccccc1)C(=O)N1CCC[C@H]1C(=O)NCCCCN=C(N)N |
